{"source": "patent US20020018788A1", "about": "“PREPARATION PROTECTING SKIN FROM MECHANICAL IRRITATION” (priority 1996, published 2002)", "key": {"[1]": {"conditions": "pure form; in water and in lower alcohols, such as methanol and ethanol; cited from earlier work"}, "thermal skin irritation": {"system": "thermal skin irritation", "assay": "Thermal conductivity of the skin (microcirculation), infrared irradiation, group 2", "assay_type": "in vivo, healthy female volunteers", "method": "(§1) The effect of trimethylglycine on the skin was studied by measuring the thermal conductivity of the skin by a method described by A. Dittmar in Cutaneous investigation in health and disease. Non-invasive methods and instrumentation, ed. J. L. Lévêque, Marcel Dekker Inc., New York-Basel, 1989. The method correlates directly with microcirculation on the skin. Thermal conductivity (K) is measured from the skin with a specific Hematron® thermal sensor and transformed into an electric signal, which is recorded by a recorder. In thermal conductivity (ΔK), a significant level of variation is 0.1 mW/cm.°C.\nIn the second test group (group 2), the subjects' microcirculation was measured at the erythema in the same way as above, but the irritation was here caused by 30-minute infrared irradiation (IR Philips 250 S lamps, spectrum 700 to 2500 nm, power 250 W, light energy 70 mW/cm^2, irradiation area 14 cm^2) in the four cutaneous areas defined on the upper back.\n(§2) The thermal conductivity values measured on each volunteer subject are shown in table 1 (group 1) and table 2 (group 2). Tables 1 and 2 show the mean values (n=6) of thermal conductivity (K expressed as mW/cm .°C.) in the treated area, placebo area, and untreated areas at different instances of measuring. In tables 1 and 2, the treated area means an area treated with a preparation containing trimethylglycine; untreated area 1 is an untreated area that is symmetric with the area treated with the preparation containing trimethylglycine; the placebo area means an area treated with a placebo; and untreated area 2 is an untreated area that is symmetric with the area treated with the placebo.\n(§3) Per /cent (%) variations between the treated area and untreated area 1, and the placebo area and untreated area 2 were calculated for each volunteer subject 30 and 60 min after application of the product. The variations were calculated using the formula [formula]"}, "skin": {"system": "skin", "assay": "Tolerance of the preparation by the subjects in both tests", "assay_type": "in vivo, healthy female volunteers", "conditions": "topical 4% (weight/volume) preparation", "method": "(§4) The test was conducted on two test groups, each one of which comprised six healthy female volunteers. In the first test group (group 1), four cutaneous test areas were defined on the arm of each subject, and microcirculation was first measured for 30 minutes before the preparation was added. The skin was then cut by scraping in all the four areas, and onto the skin was pressed a filter paper into which a solution had been absorbed that contained 14 μl/cm^2 of 4% (weight/volume) trimethylglycine in distilled water, or only distilled water (placebo). Subsequently, microcirculation was measured for 60 minutes at the erythematous, damaged points on the skin, treated with the solution. In the second test group (group 2), the subjects' microcirculation was measured at the erythema in the same way as above, but the irritation was here caused by 30-minute infrared irradiation (IR Philips 250 S lamps, spectrum 700 to 2500 nm, power 250 W, light energy 70 mW/cm^2, irradiation area 14 cm^2) in the four cutaneous areas defined on the upper back."}, "[2]": {"system": "mechanical skin irritation", "assay": "Thermal conductivity of the skin (microcirculation), skin cut by scraping, group 1", "assay_type": "in vivo, healthy female volunteers", "conditions": "for % Variation, treated area/untreated area 1 (microcirculation): 4% (weight/volume) in distilled water, mean ± standard error; for % Variation, treated area/untreated area 1 (microcirculation) / Mean values of thermal conductivity (K), treated area: n=6", "method": "as §1\nas §4, with “solution.” for “solution. In the second test group (group 2), the subjects' microcirculation was measured at the erythema in the same way as above, but the irritation was here caused by 30-minute infrared irradiation (IR Philips 250 S lamps, spectrum 700 to 2500 nm, power 250 W, light energy 70 mW/cm^2, irradiation area 14 cm^2) in the four cutaneous areas defined on the upper back.”\nas §2, §3"}}}
{"smiles": "C[N+](C)(C)CC(=O)[O-]", "note": "[trimethylglycine]", "values": [{"measurement": "Solubility", "setting": "[1]", "value": "readily soluble"}, {"measurement": "% Variation, treated area/untreated area 1 (microcirculation)", "setting": "thermal skin irritation; group 2, t30 min, 4% (weight/volume) in distilled water, mean ± standard error, n=6", "value": "23.5±11.8", "unit": "%"}, {"measurement": "Effect on thermal erythema", "setting": "thermal skin irritation; group 2, preparation containing trimethylglycine", "value": "no effect on thermal erythema"}, {"measurement": "Mean values of thermal conductivity (K), treated area", "setting": "thermal skin irritation; t0, before application of product, upper back, n=6", "value": "3.13 ± 0.30", "unit": "mW/cm · ° C."}, {"measurement": "Mean values of thermal conductivity (K), treated area", "setting": "thermal skin irritation; t30, 30 min after application of 4% (weight/volume) trimethylglycine in distilled water, 30-minute infrared irradiation, n=6", "value": "3.85 ± 0.31", "unit": "mW/cm · ° C."}, {"measurement": "Mean values of thermal conductivity (K), treated area", "setting": "thermal skin irritation; t60, 60 min after application of 4% (weight/volume) trimethylglycine in distilled water, 30-minute infrared irradiation, n=6", "value": "3.60 ± 0.38", "unit": "mW/cm · ° C."}, {"measurement": "Tolerance / sensitivity of the subjects", "setting": "skin", "value": "tolerated the trimethylglycine preparation well"}, {"measurement": "% Variation, treated area/untreated area 1 (microcirculation)", "setting": "[2]; group 1, t30 min", "value": "-8.9±8.6", "unit": "%"}, {"measurement": "% Variation, treated area/untreated area 1 (microcirculation)", "setting": "[2]; group 1, t60 min", "value": "-15.0±8.8", "unit": "%"}, {"measurement": "Effect against mechanical erythema as compared with the placebo", "setting": "[2]; group 1, 4% (weight/volume) in water, effect detected 60 min after the application", "value": "effective against mechanical erythema"}, {"measurement": "Mean values of thermal conductivity (K), treated area", "setting": "[2]; t0, before application of product, arm skin", "value": "3.82 ± 0.59", "unit": "mW/cm · ° C."}, {"measurement": "Mean values of thermal conductivity (K), treated area", "setting": "[2]; t30, 30 min after application of 4% (weight/volume) trimethylglycine in distilled water, 14 μl/cm^2, skin cut by scraping", "value": "3.66 ± 0.69", "unit": "mW/cm · ° C."}, {"measurement": "Mean values of thermal conductivity (K), treated area", "setting": "[2]; t60, 60 min after application of 4% (weight/volume) trimethylglycine in distilled water, 14 μl/cm^2, skin cut by scraping", "value": "3.42 ± 0.41", "unit": "mW/cm · ° C."}]}
